Measurements as given in patent publication US11591298B2, “Bisaminoquinoline compounds, pharmaceutical compositions prepared therefrom and their use” (THE TRUSTEES OF THE UNIVERSITY OF PENNSYLVANIA, priority 2011, dated 2023).

Key:
c8161 cells [1] = experiment: MTT assay in c8161 cells at 72 hours; type: cell-based; conditions: Lys01 versus Lys05
Description: (§1) FIGS. 5A, 5B. […] (5A) Immunoblotting against LC3 and p62 in c8161 cells treated as indicated (5B) MTT assay in c8161 cells at 72 hours. HCQ: Hydroxychloroquine.
(§2) Lys05, the trihydrochloride salt of Lys01 was synthesized to enhance aqueous solubility and to enable in vivo studies. […] To investigate the safety of Lys05 and its in vivo effects on autophagy, c8161 xenografts matched for tumor size were treated with intraperitoneal (i.p.) daily PBS, or equimolar doses of HCQ or Lys05 (HCQ 60 mg/kg (138 nmoles/g), Lys05 76 mg/kg (138 nmoles/g)) for 48 hours. […] After 48 hours of treatment mice were euthanized, and tumors were processed for electron microscopy (EM).

P. falciparum = P. falciparum strains grown in vitro in human RBC (Table 2, FIG. 17); type: cell-based; conditions: some CQ-resistant cell lines; values only in FIG. 17
Text: FIG. 17, Table 2 provides IC50 (M) values of a number of compounds according to the present invention in P. falciparum.
There is a similar activity profile for anticancer activity of Lys01 derivatives and malaria cytotoxicity.

[2] = tested on: LC3II/LC3I ratio in LN229 cells; experiment: LC3 immunoblotting (LC3II/LC3I ratio) in LN229 cells; type: cell-based, human; conditions: concentration of 10 μM, 4 hours
Description: FIG. 3. Effects of Lys01-Lys04 on LC3 immunoblotting Immunoblotting and quantification of LC3II/LC3I ratio in lysates from LN229 cells treated for 4 hours. The graphs show (mean+/−SD) LC3II/LC3I ratios of each treatment normalized to the LC3II/LC3I ratio of control treated cells for each experiment.
LN229 (human glioblastoma) were treated with Lys01 and derivatives Lys02, Lys03, Lys04, HCQ and CQ. […] LC3 is a ubiquitin-like protein which exists as an unconjugated form (LC3I) or conjugated to AV membranes (LC3II) (25). The ratio of LC3II/LC3I reflects the accumulation of AV in cells, and therefore effective autophagy inhibition.

[3] = tested on: LN229 (human glioblastoma); experiment: Cell death of cultured LN229 cells; type: cell-based; conditions: concentrations of 10 μM or higher, between 4-24 hours
c8161 cells [4] = experiment: Immunoblotting against LC3 and p62 in c8161 cells; type: cell-based; conditions: Lys01 versus Lys05
Description: as §1, §2

LN229 GFP-LC3 cells = experiment: GFP-LC3 puncta imaging in LN229 GFP-LC3 cells; type: cell-based, human; conditions: for GFP-LC3 punctate fluorescence: within 4 hours
Description: Autophagy inhibition and cytotoxicity of Lys01 compared to HCQ (4A) Representative images of LN229 GFP-LC3 cells treated as indicated for 4 hours. White arrows: small puncta; red arrows: dense puncta. Graphs show mean+/−SEM puncta/cell. (4B) Representative electron micrographs of LN229-GFP-LC3 cells treated (4 hours) with DMSO, HCQ 10 μM, or Lys01 10 μM Arrows: Autophagic vesicles. (4C) LC3 immunoblotting of LN229 cells treated for 24 hours an indicated; calculated ratio of LC3II/LC3I ratios for bafilomycin versus control co-treatment. […] Values presented are means+/−SEM with 5 replicates per treatment.
To determine if Lys01 treatment was inducing production of new autophagic vesicles (an autophagy inducer) or blocking the clearance of autophagy vesicles (an autophagy inhibitor), a bafilomycin clamp experiment was performed (FIG. 4C). LN229 GFP-LC3 cells were treated with DMSO, rapamycin, HCQ 10 μM, and Lys01 10 μM, in the absence or presence of bafilomycin.

HCC827 = experiment: Cell death after 24 hours in HCC827 cells; type: cell-based; conditions: 10 μM
[5] = tested on: LN229 (glioma), 1205Lu (melanoma), HT-29 (colon) and c8161 (melanoma) cells; experiment: MTT assay (72 hours) in 4 cell lines; type: cell-based; conditions: range over the 4 cell lines tested
Description: FIGS. 4A, 4B, 4C, 4D. […] White arrows: small puncta; red arrows: dense puncta. Graphs show mean+/−SEM puncta/cell. (4B) Representative electron micrographs of LN229-GFP-LC3 cells treated (4 hours) with DMSO, HCQ 10 μM, or Lys01 10 μM Arrows: Autophagic vesicles. (4C) LC3 immunoblotting of LN229 cells treated for 24 hours an indicated; calculated ratio of LC3II/LC3I ratios for bafilomycin versus control co-treatment. […] (4D) MTT assay (72 hours) for 4 cell lines. Red: Lys01, Blue: Lys02, Purple: Lys03 Green: Lys04 Orange: HCQ. Values presented are means+/−SEM with 5 replicates per treatment.
The MTT assay was used to assess viable cells at 72 hours.

1205Lu = experiment: Cell death after 24 hours in 1205Lu cells; type: cell-based; conditions: 10 μM

CN(CCNc1ccnc2cc(Cl)ccc12)CCNc1ccnc2cc(Cl)ccc12 [Lys01]
IC50 values in the MTT assay (c8161 cells [1]): identical | IC50, activity compared to artesunate (P. falciparum): more active than artesunate | potency as autophagy inhibitor relative to HCQ or CQ (LC3 immunoblotting) [2]: > 10 fold | cell death of cultured cells [3]: Near complete cell death | LC3II/LC3I ratio (c8161 cells [4]): equivalent dose-dependent increases | autophagy cargo protein p62 (c8161 cells [4]): accumulation | GFP-LC3 punctate fluorescence (LN229 GFP-LC3 cells; 1 μM): numerous small puncta | increase in GFP-LC3 puncta per cell, 10 μM Lys01 compared to 10 μM HCQ (LN229 GFP-LC3 cells; 10 μM, 4 hours): 5 fold | GFP-LC3 punctate fluorescence (LN229 GFP-LC3 cells; 10 μM): dense puncta | cell death (LN229 GFP-LC3 cells; 100 μM): dead by 4 hours | average number of vesicles per cell (LN229 GFP-LC3 cells; Lys01 10 μM versus 100 μM HCQ): higher than in cells treated with 100 μM HCQ | cell death (HCC827): Near complete cell death | IC50 [5]: 4 to 8 µM | cell death (1205Lu): Near complete cell death
